The values that follow come from publication PMC12040169 (PLOS Biology, 2025).

In general, viability refers to a read-out of living cells in per cent, often relative to untreated cells.

This series can be described thus: in vitro. Conditions: human, hela cells, % viability.
Regarding `CN(C)c1ccccc1-c1cc(NCCc2ccccn2)ncn1` [CBK037189], the viability at 28.5 h, 10 µM amounted to 102%.
In the case of `CN(C)c1ccc(-c2cncc(NCc3ccc4c(c3)OCO4)n2)cc1` [CBK037190] it was 108%; in that of `OCC1CCCN1c1cncc(-c2ccc3ccccc3c2)n1` (stereo not shown) [CBK037197], 104%.
In the case of `COc1ccc(-c2nc(NC(=O)CC#N)cnc2-c2ccc(F)cc2)cc1` [CBK037198] it was 104%; in that of `CC(C)(CO)CNc1cc(Cl)nc2ccnn12` [CBK037200], 91%.
In the case of `CN(C)c1ccc(Nc2cc(Cl)nc3ccnn23)cc1` [CBK037203] it was 98.3%.
As to `CN(C)CCN(C)c1cc(-c2cccc(C(=O)O)c2)nc2ccnn12` [CBK037206], the viability at 28.5 h, 10 µM was determined as 101%.
With `CCCNc1nccnc1-c1cc(C)c(O)c(C)c1` [CBK037210], the viability at 28.5 h, 10 µM was found to be 87.6%.
In the case of `CN(C)CCN1CCN(c2cc(Nc3ccc(N(C)C)cc3)nc3ccnn23)CC1` [CBK037211] it was 93.4%; in that of `CN1CCCN(c2cncc(-c3cccnc3)n2)CC1` [CBK037215], 92.9%; in that of `Nc1cccc(-c2cncc(NCC3CCOCC3)n2)c1` [CBK037221], 96.8%.
In the case of `COc1ccc(-c2cncc(N3CCCC3CO)n2)cc1` (stereo not shown) [CBK037223] it was 112%; in that of `CN1CCN(c2ccc(-c3cncc(NC4CCOCC4)n3)cn2)CC1` [CBK037229], 105%; in that of `CCCNc1nccnc1-c1ccccc1F` [CBK037231], 104%.
The value for `COc1cc(Nc2cc(-c3cccc(N)c3)nc3ccnn23)cc(OC)c1OC` [CBK037236] was 105%; that for `Clc1cccc(-c2cncc(NCC3CCOCC3)n2)c1` [CBK037237] was 103%; that for `Fc1ccc(-c2cn3ccnc3c(Nc3cccc(OC(F)(F)C(F)F)c3)n2)cc1Cl` [CBK037265] was 98.1%.
Consider `COc1ccccc1-c1cn2ccnc2c(N2CCCC2CO)n1` (stereo not shown) [CBK037266], for which the viability at 28.5 h, 10 µM turned out to be 96.5%.
The value for `CCCC/C=C/c1nccnc1NCC1CC1` [CBK037268] was 100%; that for `COc1ccc(C(C)C)cc1-c1cn2ccnc2c(NCc2ccco2)n1` [CBK037269] was 98.2%; that for `c1ccc(CCNc2nc(-c3ccc(N4CCOCC4)cc3)cn3ccnc23)nc1` [CBK037271] was 96.4%.
In the case of `CCCC/C=C/c1cncc(N2CCN(c3ccccn3)CC2)n1` [CBK037276] it was 117%; in that of `OCCCNc1nccnc1-c1cccnc1` [CBK037277], 108%.
In the case of `COc1cc(-c2cn3ccnc3c(NCC3CCOCC3)n2)cc(OC)c1OC` [CBK037284] it was 96.8%.
Regarding `COc1ccc(-c2cncc(NCC3CCOCC3)n2)cc1` [CBK037285], the viability at 28.5 h, 10 µM came to 96.5%.
As to `COc1cc(Nc2nc(-c3ccccc3F)cn3ccnc23)cc(OC)c1OC` [CBK037301], the viability at 28.5 h, 10 µM was found to be 98.9%.
The value for `Cc1ccc(S(=O)(=O)Nc2ccc(Nc3nc(-c4ccccc4)cn4ccnc34)cc2)cc1` [CBK037303] was 104%; that for `CCCC/C=C/c1nccnc1NCc1ccc2c(c1)OCO2` [CBK037304] was 98.1%.
The value for `c1cncc(-c2nccnc2NCC2CC2)c1` [CBK037310] was 80.9%; that for `COc1cc(CNc2nccnc2-c2ccco2)cc(OC)c1OC` [CBK037320] was 89.9%.
For the compound `COCCNc1nccnc1-c1cccc(C(F)(F)F)c1` [CBK037330], the viability at 28.5 h, 10 µM turned out to be 89.7%.
`c1coc(-c2cn3ccnc3c(NCCc3ccncc3)n2)c1` [CBK037333]: the viability at 28.5 h, 10 µM was 93.5%.
In the case of `COc1ccc(C(C)C)cc1-c1cn2ccnc2c(Nc2ccc(N3CCOCC3)cc2)n1` [CBK037338] it was 103%; in that of `O=C(c1ccco1)N1CCN(c2cncc(-c3cccc4cccnc34)n2)CC1` [CBK037339], 96.9%; in that of `OCCCNc1nccnc1-c1ccco1` [CBK037346], 99.2%.
On to `OCCCNc1nccnc1-c1ccc(F)cc1` [CBK037348], for which the viability at 28.5 h, 10 µM amounted to 109%.
Turning to `c1ccc(-c2cn3ccnc3c(NCC3CCOCC3)n2)cc1` [CBK037356], the viability at 28.5 h, 10 µM is 99.1%.
For `OCCC1CCCCN1c1nccnc1-c1ccsc1` (stereo not shown) [CBK037358], the viability at 28.5 h, 10 µM amounted to 105%.
The value for `c1coc(-c2cn3ccnc3c(Nc3ccc4[nH]ccc4c3)n2)c1` [CBK037361] was 91.9%; that for `Clc1ccccc1-c1nccnc1NCc1cccs1` [CBK037362] was 98.6%; that for `N#Cc1ccccc1N1CCN(c2cncc(-c3cccc4cccnc34)n2)CC1` [CBK037366] was 102%.
With `CC(C)[C@@H](CO)Nc1nc(-c2ccccc2Cl)cn2ccnc12` [CBK037368], the viability at 28.5 h, 10 µM came out at 101%.
In the case of `CCCC/C=C/c1nccnc1NCCc1ccncc1` [CBK037370] it was 99.9%; in that of `COc1ccccc1-c1cn2ccnc2c(NCc2ccccc2)n1` [CBK037372], 92.7%.
In the case of `COCCNc1nccnc1-c1cccnc1` [CBK037376] it was 102%; in that of `c1cncc(CCNc2nccnc2-c2cccnc2)c1` [CBK037380], 93%.
In the case of `COc1cc(-c2cn3ccnc3c(N[C@@H]3CCN(Cc4ccccc4)C3)n2)cc(OC)c1OC` [CBK037385] it was 113%; in that of `c1ccc2c(-c3cn4ccnc4c(N4CCOCC4)n3)cccc2c1` [CBK037387], 91.6%.
Take `Cc1cccc(C)c1-c1cn2ccnc2c(N2CCN(c3ccccn3)CC2)n1` [CBK037389]: the viability at 28.5 h, 10 µM was determined as 89%.
In the case of `CN(Cc1ccccc1)c1nccnc1-c1ccsc1` [CBK037394] it was 91%; in that of `COc1cc(CNc2nc(-c3cccc4ccccc34)cn3ccnc23)cc(OC)c1OC` [CBK037397], 112%; in that of `CN(C)CCN(C)c1nc(-c2ccccc2F)cn2ccnc12` [CBK037406], 99.8%.
Regarding `CCCC/C=C/c1nccnc1N(C)Cc1ccccc1` [CBK037412], the viability at 28.5 h, 10 µM amounted to 99.8%.
In the case of `COc1cc(Nc2nc(-c3ccco3)cn3ccnc23)cc(OC)c1OC` [CBK037413] it was 95.2%; in that of `COc1cc(CNc2nc(-c3c(C)cccc3C)cn3ccnc23)cc(OC)c1OC` [CBK037415], 91.1%; in that of `O=[N+]([O-])c1cccc(CNc2nccnc2-c2ccccc2F)c1` [CBK037416], 102%.
In the case of `COc1cc(-c2nccnc2N(C)Cc2ccccc2)cc(OC)c1OC` [CBK037424] it was 96.5%.
In the case of `O=C(Nc1cccc(OCc2ccccc2)c1)c1cnc(-c2ccc(Cl)cc2)c(-c2ccco2)c1` [CBK037429] it was 93.9%.
Regarding `COc1ccc(-c2cc(C(=O)NCc3cc(Cl)cc(Cl)c3)cnc2-c2ccc(Cl)cc2)cn1` [CBK037431], the viability at 28.5 h, 10 µM stood at 88.8%.
The value for `Cc1cccc(-c2ncc(C(=O)NCCN3CCOCC3)cc2-c2ccc(O)cc2)c1` [CBK037435] was 105%; that for `COc1cccc(OC)c1-c1cn2ccnc2c(NCc2ccccn2)n1` [CBK037439] was 93.7%; that for `OCCN1CCN(c2nc(-c3ccc4c(c3)OCO4)cn3ccnc23)CC1` [CBK037443] was 99.1%.
In the case of `OCc1ccccc1-c1nccnc1NCCc1cccnc1` [CBK037444] it was 94%; in that of `O=C(Nc1ccc2[nH]ccc2c1)c1cnc(-c2ccc(F)cc2)c(-c2ccncc2)c1` [CBK037451], 91.9%.
The value for `COc1ccc(-c2cc(C(=O)Nc3ccc(CCO)cc3)cnc2-c2cccc(C)c2)cn1` [CBK037461] was 91.8%; that for `Nc1ccc(NC(=O)c2ccc(NC(=O)c3cnc(-c4ccccc4)c(-c4ccncc4)c3)cc2)cc1` [CBK037463] was 101%.
With `O=C(NCC(F)(F)F)c1cnc(-c2ccc(Cl)cc2)c(-c2ccco2)c1` [CBK037468], the viability at 28.5 h, 10 µM was found to be 86.2%.
In the case of `Fc1ccccc1-c1cn2ccnc2c(NCCc2cccnc2)n1` [CBK037473] it was 88.1%; in that of `OCc1cccc(-c2nccnc2NCc2ccc(OC(F)(F)F)cc2)c1` [CBK037476], 108%; in that of `CCNC(=O)c1cnc(-c2ccc(F)cc2)c(-c2ccncc2)c1` [CBK037477], 101%.
The value for `c1ccc(CNc2nc(-c3ccco3)cn3ccnc23)nc1` [CBK037482] was 96.6%; that for `CC(=O)c1ccc(-c2nccnc2N2CCCC2CO)s1` (stereo not shown) [CBK037483] was 113%.
`COc1cccc(NC(=O)c2cnc(-c3ccccc3)c(-c3cccnc3)c2)c1OC` [CBK037487]: the viability at 28.5 h, 10 µM turned out to be 92.8%.
The value for `COc1ccc(NC(=O)c2cnc(-c3cccc(C)c3)c(-c3ccco3)c2)cc1` [CBK037491] was 83.9%; that for `c1ccc(Nc2nc(-c3ccc4c(c3)OCO4)cn3ccnc23)cc1` [CBK037494] was 92.2%; that for `CC(C)[C@@H](CO)Nc1nc(-c2cc(C(F)(F)F)cc(C(F)(F)F)c2)cn2ccnc12` [CBK037496] was 84.9%.
The value for `CCCC/C=C/c1nccnc1NCc1ccncc1` [CBK037500] was 108%.
The value for `Nc1cccc(-c2nccnc2NCCc2ccccn2)c1` [CBK037512] was 102%; that for `CCCC/C=C/c1nccnc1N[C@@H](CO)C(C)C` [CBK037514] was 101%; that for `COCCNC(=O)c1cnc(-c2ccccc2)c(-c2cccnc2)c1` [CBK037515] was 106%.
As for `O=C(Nc1ccc(O)cc1)c1cnc(-c2ccc(Cl)cc2)c(-c2cccnc2)c1` [CBK037516], the viability at 28.5 h, 10 µM is 94.7%.
The value for `CC(=O)N1CCN(C(=O)c2cnc(-c3ccc(Cl)cc3)c(-c3ccco3)c2)CC1` [CBK037518] was 98.1%.
